From ChEMBL document CHEMBL3868631, “Discovery of SOAT2 inhibitors from synthetic small molecules” (Bioorg Med Chem Lett, 2016)

Assays:
[1] = target: T1, SOAT1 (sterol O-acyltransferase 1) (Chlorocebus aethiops, UniProt O77760); test: Inhibition of African green monkey SOAT1 expressed in CHO cells assessed as reduction in [14C]cholesteryl ester formation from [1-14C]oleic acid at 10 ug/ml measured after 6 hrs relative to control; type: ADME, cell-based; details: CHO cells expressing African green monkey SOAT1, probe [1-14C]oleic acid
T1 sequence (O77760 whole entry): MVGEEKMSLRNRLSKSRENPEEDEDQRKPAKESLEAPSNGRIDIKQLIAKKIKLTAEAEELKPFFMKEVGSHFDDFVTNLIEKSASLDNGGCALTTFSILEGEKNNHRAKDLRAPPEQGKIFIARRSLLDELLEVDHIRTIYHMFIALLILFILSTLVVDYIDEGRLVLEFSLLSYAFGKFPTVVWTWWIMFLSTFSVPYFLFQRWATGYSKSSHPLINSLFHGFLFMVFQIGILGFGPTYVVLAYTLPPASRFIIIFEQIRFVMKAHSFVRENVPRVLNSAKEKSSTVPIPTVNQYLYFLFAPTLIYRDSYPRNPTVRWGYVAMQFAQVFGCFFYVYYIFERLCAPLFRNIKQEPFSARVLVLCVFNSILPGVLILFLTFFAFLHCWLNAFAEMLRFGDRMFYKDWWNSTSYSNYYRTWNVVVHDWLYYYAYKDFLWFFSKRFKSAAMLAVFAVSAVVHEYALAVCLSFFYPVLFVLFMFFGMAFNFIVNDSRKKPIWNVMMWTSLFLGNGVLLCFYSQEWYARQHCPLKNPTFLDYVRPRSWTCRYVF

[2] = target: T2, Sterol O-acyltransferase 2 (Chlorocebus aethiops) (UniProt O77759); test: Inhibition of African green monkey SOAT2 expressed in CHO cells assessed as reduction in [14C]cholesteryl ester formation from [1-14C]oleic acid at 10 ug/ml measured after 6 hrs relative to control; type: cell-based
T2 sequence (whole entry): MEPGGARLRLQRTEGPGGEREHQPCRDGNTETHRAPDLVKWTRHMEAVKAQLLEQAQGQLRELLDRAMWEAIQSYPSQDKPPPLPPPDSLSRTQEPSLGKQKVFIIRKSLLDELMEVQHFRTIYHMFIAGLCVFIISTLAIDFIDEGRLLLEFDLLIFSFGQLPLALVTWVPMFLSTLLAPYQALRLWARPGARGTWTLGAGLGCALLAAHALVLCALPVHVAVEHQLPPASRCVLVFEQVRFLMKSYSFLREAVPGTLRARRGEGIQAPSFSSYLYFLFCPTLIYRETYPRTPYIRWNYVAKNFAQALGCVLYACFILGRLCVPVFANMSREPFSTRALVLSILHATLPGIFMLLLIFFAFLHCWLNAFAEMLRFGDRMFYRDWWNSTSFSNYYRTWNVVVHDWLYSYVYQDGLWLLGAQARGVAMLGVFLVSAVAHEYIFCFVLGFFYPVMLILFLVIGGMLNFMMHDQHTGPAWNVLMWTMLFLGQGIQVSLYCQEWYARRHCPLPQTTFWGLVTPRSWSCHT

[3] = target: T3, Sterol O-acyltransferase 1 (Chlorocebus aethiops, UniProt O77760); test: Inhibition of African green monkey SOAT1 expressed in CHO cells assessed as reduction in [14C]cholesteryl ester formation from [1-14C]oleic acid measured after 6 hrs; type: ADME, cell-based
T3 sequence (O77760 whole entry): T1 sequence (O77760 whole entry)

[4] = Selectivity index, ratio of IC50 for African green monkey SOAT1 expressed in CHO cells to IC50 for African green monkey SOAT2 expressed in CHO cells; design: species or system Chlorocebus aethiops
[5] = target: T4, Sterol O-acyltransferase 2 (Chlorocebus aethiops, UniProt O77759); test: Inhibition of African green monkey SOAT2 expressed in CHO cells assessed as reduction in [14C]cholesteryl ester formation from [1-14C]oleic acid measured after 6 hrs; type: cell-based
T4 sequence (O77759 whole entry): T2 sequence (whole entry)

[6] = Cytotoxicity against CHO cells expressing African green monkey SOAT2 assessed as change in cell shape at 10 ug/ml; type: toxicity, cell-based, Cricetulus griseus; details: chinese hamster
[7] = Cytotoxicity against CHO cells expressing African green monkey SOAT1 assessed as change in cell shape at 10 ug/ml; type: toxicity, cell-based, Cricetulus griseus; details: chinese hamster

Row | SMILES | inhibition at 6 h, 10 ug/ml [1] [%] | inhibition [2] [%] | IC50 [3] [µM] | IC50 [5] [µM] | Ratio IC50 [4] | Activity [6] | Activity [7]
1 | CCC[C@@H]1CC(=O)C[C@@]2(O1)C(=O)Nc1cc(Cl)ccc12 (racemic) |  |  |  |  |  | Non-Toxic | Non-Toxic
2 | CCC[C@@H]1CC(=O)C[C@@]2(O1)C(=O)Nc1ccccc12 |  |  |  |  |  | Non-Toxic | 
3 | CCC/C=C/C(=O)CC1(O)C(=O)Nc2ccccc21 (racemic) |  |  |  |  |  | Toxic | Toxic
4 | C=CC[C@@]1(O)C[C@@H](CCC)O[C@]2(C1)C(=O)Nc1ccccc12 |  |  |  |  |  | Non-Toxic | Non-Toxic
5 | CCC[C@@H]1CC(=O)C[C@@]2(O1)C(=O)Nc1ccccc12 (racemic) |  |  |  |  |  |  | Non-Toxic
6 | CCC[C@@H]1CC(=O)C[C@@]2(O1)C(=O)Nc1ccc(Br)cc12 (racemic) |  |  |  |  |  | Non-Toxic | Non-Toxic
7 | CCC[C@@H]1CC(=O)C[C@@]2(O1)C(=O)Nc1cccc(Cl)c12 |  |  |  |  |  | Non-Toxic | Non-Toxic
8 | CCC[C@@H]1CC(=O)C[C@@]2(O1)C(=O)Nc1ccc(C)cc12 |  |  |  |  |  | Non-Toxic | Non-Toxic
9 | CCC[C@@H]1CC(=O)C[C@@]2(O1)C(=O)Nc1cccc(Br)c12 |  |  |  |  |  | Non-Toxic | Non-Toxic
10 | CCC[C@@H]1C[C@@H](O)C[C@@]2(O1)C(=O)Nc1ccccc12 |  |  |  |  |  | Non-Toxic | Non-Toxic
11 | O=C1C[C@@H](CCCCl)O[C@]2(C1)C(=O)Nc1cccc(Br)c12 |  |  |  |  |  | Non-Toxic | Non-Toxic

The next lines start with results.

Row | inhibition at 6 h, 10 ug/ml [1] [%] | inhibition [2] [%] | IC50 [3] [µM] | IC50 [5] [µM] | SMILES | Ratio IC50 [4] | Activity [6] | Activity [7]
12 | > 50 | > 50 | > 28 | 9.3 | CCC[C@@H]1CC(=O)C[C@@]2(O1)C(=O)N(C)c1cccc(Br)c12 | >3 | Non-Toxic | Non-Toxic
13 | > 50 | > 50 | 8.9 | 3 | CCC[C@@H]1CC(=NOCc2ccccc2)C[C@@]2(O1)C(=O)Nc1ccccc12 (racemic) | 3 |  | 
14 | > 50 | > 50 | > 28 | 6.8 | CCC[C@@H]1C[C@@H](NCc2ccccc2)C[C@@]2(O1)C(=O)Nc1ccccc12 (racemic) | >4.1 | Non-Toxic | Non-Toxic
15 | > 50 | > 50 | > 22 | > 33 | CCC[C@@H]1C[C@@H](NCc2ccccc2)C[C@@]2(O1)C(=O)N(C)c1cccc(Br)c12 (racemic) |  |  | 
16 | > 50 | > 50 | 16 | 1.5 | CCC[C@@H]1C/C(=N/OCc2ccccc2)C[C@@]2(O1)C(=O)Nc1ccccc12 | 10 - 11 |  | 
17 | > 50 | > 50 |  |  | CCC[C@@H]1C/C(=N/O)C[C@@]2(O1)C(=O)Nc1ccccc12 (racemic) |  | Non-Toxic | Non-Toxic
18 | > 50 | > 50 | > 23 | 12 | CCC[C@@H]1C[C@@H](NCc2ccccc2)C[C@@]2(O1)C(=O)Nc1cccc(Br)c12 (racemic) | >1.9 |  | 
19 | > 50 | > 50 | > 27 | > 27 | CCC[C@@H]1C[C@@H](NCc2ccccc2)C[C@@]2(O1)C(=O)N(C)c1ccccc12 (racemic) |  |  | 
20 | > 50 | > 50 | 14 | 16 | CCC[C@H]1C/C(=N/OCc2ccccc2)C[C@]2(O1)C(=O)Nc1ccccc12 | 0.88 |  | 
21 | > 50 | > 50 | 11 | 9.1 | CCC[C@@H]1C[C@@H](NCc2ccccc2)C[C@@]2(O1)C(=O)N(Cc1ccccc1)c1ccccc12 (racemic) | 1.2 |  | 
22 | > 50 | > 50 |  |  | CCC/C=C/C(=O)CC1(O)C(=O)Nc2cccc(Br)c21 (racemic) |  | Toxic | Toxic
23 | > 50 | > 50 | > 31 | 26 | CCC[C@@H]1C[C@@H](N2CCCC2)C[C@@]2(O1)C(=O)Nc1ccccc12 (racemic) | >1.2 |  | 
24 | > 50 | > 50 |  |  | O=C1CC(c2ccccc2)O[C@]2(C1)C(=O)Nc1cccc(Br)c12 (mixture of isomers) |  | Non-Toxic | Non-Toxic
